Laboratory results published in publication PMC6269799, “Synthesis and Trypanocidal Activity of Novel 2,4,5-Triaryl-N-Hydroxylimidazole Derivatives” (Molecules, 2013).
“And” between values parts separate entries of the source, which are not always exact repeats. Identical values can stand only once. Like-named read-outs stand apart in the source and are kept apart here.

Legend:
[1] = test system: bloodstream trypomastigote forms of T. cruzi (Y strain); experiment: Activity against bloodstream trypomastigote forms; format: cell-based, Trypanosoma cruzi; settings: in vitro, mean ± standard deviation of at least four separate experiments, read-out: IC50 (trypanocidal activity)
Description: The trypanocide profiles of the new TAI derivatives 3–12 was evaluated in vitro using bloodstream trypomastigote forms of T. cruzi (Y strain) isolated from infected Swiss mice and are summarised in Table 1.
Stock solutions of NAH derivatives were prepared in DMSO. Bloodstream trypomastigote forms of T. cruzi (Y strain) were isolated from infected Swiss mice and re-suspended with Dulbecco’s modified Eagle medium plus 10% foetal calf serum (DMES) to a parasite concentration of 10 × 10^6 cells/mL. This suspension (100 μL) was added to the same volume of each NAH derivative, previously prepared at twice the desired concentrations in DMES. Stock solutions of the NAH derivatives were prepared in dimethylsulfoxide (DMSO), and they were assayed in the range of 0.5 to 2000 μg/mL. The final concentration of DMSO never exceeded 0.5%, thus, it had no deleterious effect on the parasites.

[2] = Cytotoxic effect on murine macrophages (Alamar Blue assay); format: cell-based; settings: mouse, J774 macrophage cell line, murine macrophages J774, 21 h after the treatment
Description: (§1) Cellular viability in the presence and absence of TAI derivatives (4–6) was determined using Alamar Blue assay (Invitrogen). The macrophage cell line J774 was seeded into black clear flat-bottomed 96-well plates in a density of […]. After 1 h of incubation in controlled atmosphere (5% CO2, 37 °C),cells received fresh medium with or without Tween 20 (3%), DMSO (0.5%) and the TAI compounds (1 to 100 μM) in a quadruplicate assay. After 21 h of incubation in the previous conditions, 20 μL of Alamar Blue solution was added to each well and after 3 h, fluorescence was measured using SpectraMax M5/M5^e microplate reader (Molecular Devices; λexc = 555 nm, λem = 585 nm).

[3] = test system: macrophage cell line J774; experiment: Cytotoxic effect on murine macrophages (Alamar Blue assay); format: cell-based
Description: as §1

Compound	IC50 ([1]; Trypanosoma cruzi)	melting point	also measured
Cn1c([N+](=O)[O-])cnc1-c1c(-c2ccccc2)nc(-c2ccc(O)cc2)n1O [Compound 9, 2'-(4-Hydroxyphenyl)-1-methyl-5-nitro-5'-phenyl-1H,3'H-2,4'-biimidazol-3'-ol]	294 ± 28 µM	–	–
Cn1c([N+](=O)[O-])cnc1-c1c(-c2ccccc2)nc(-c2ccc(F)cc2)n1O [Compound 4, 2'-(4-Fluorophenyl)-1-methyl-5-nitro-5'-phenyl-1H,3'H-2,4'-biimidazol-3'-ol]	67.8 ± 8.39 µM	–	viability at 21 h, 1 µM [2]: 94.2%; viability at 21 h, 10 µM [2]: 98.9%; viability at 21 h, 100 µM [2]: 97.6%
O=C(Cn1ccnc1[N+](=O)[O-])NCc1ccccc1 [Bzn, benznidazole, reference compound]	10.8 ± 0.4 µM	–	–
COc1ccc(-c2nc(-c3ccccc3)c(-c3ncc([N+](=O)[O-])n3C)n2O)cc1O [Compound 11, 2'-(3-Hydroxy-4-methoxyphenyl)-1-methyl-5-nitro-5'-phenyl-1H,3'H-2,4'-biimidazol-3'-ol]	200 ± 2.02 µM	213 to 214 °C and 213 °C	–
Cn1c([N+](=O)[O-])cnc1-c1c(-c2ccccc2)nc(-c2ccccc2)n1O [Compound 3, 1-Methyl-5-nitro-2',5'-diphenyl-1H,3'H-2,4'-biimidazol-3'-ol]	108 ± 5.65 µM	217 to 218 °C	–
Cn1c([N+](=O)[O-])cnc1-c1c(-c2ccccc2)nc(-c2ccc(Cl)cc2)n1O [Compound 5, 2'-(4-Chlorophenyl)-1-methyl-5-nitro-5'-phenyl-1H,3'H-2,4'-biimidazol-3'-ol]	34.6 ± 2.43 µM	249 to 250 °C	viability at 21 h, 1 µM [2]: 95.7%; viability at 21 h, 10 µM [2]: 97.6%; viability at 21 h, 100 µM [2]: 93.1%
Cn1c([N+](=O)[O-])cnc1-c1c(-c2ccccc2)nc(-c2ccc(O)c(O)c2)n1O [Compound 10, 4-(3'-Hydroxy-1-methyl-5-nitro-5'-phenyl-1H,3'H-2,4'-biimidazol-2'-yl)benzene-1,2-diol]	360 ± 24.7 µM	–	–
Cn1c([N+](=O)[O-])cnc1-c1c(-c2ccccc2)nc(-c2ccc(Br)cc2)n1O [Compound 6, 2'-(4-Bromophenyl)-1-methyl-5-nitro-5'-phenyl-1H,3'H-2,4'-biimidazol-3'-ol]	23.9 ± 4.88 µM	–	viability at 21 h, 1 µM [2]: 97.3%; viability at 21 h, 10 µM [2]: 97.6%; viability at 21 h, 100 µM [2]: 78.7%; effect on cell viability (in words) ([3]; 100 μM, murine macrophages): weakly reduced cell viability; cytotoxic effects (in words) ([3]; host cells (murine macrophages) at concentrations near the trypanocidal IC50): did not present cytotoxic effects
2'-(3-Hydroxy-4-methoxy-5-nitrophenyl)-1-methyl-5-nitro-5'-phenyl-1H,3'H-2,4'-biimidazol-3'-ol [Compound 12]	–	–	IC50 [1]: 242 ± 7.54 µM
Cn1c([N+](=O)[O-])cnc1-c1c(-c2ccccc2)nc(-c2ccc([N+](=O)[O-])cc2)n1O [Compound 7, 1-Methyl-5-nitro-2'-(4-nitrophenyl)-5'-phenyl-1H,3'H-2,4'-biimidazol-3'-ol]	242 ± 37.6 µM	361 to 362 °C	–
COc1ccc(-c2nc(-c3ccccc3)c(-c3ncc([N+](=O)[O-])n3C)n2O)cc1 [Compound 8, 2'-(4-Methoxyphenyl)-1-methyl-5-nitro-5'-phenyl-1H,3'H-2,4'-biimidazol-3'-ol]	192 ± 25.3 µM	218 to 219 °C	–
